Measured values reported in PubChem BioAssay AID248 (DTP/NCI, 2004).
Toxic doses and inconclusive results are not listed. Rule as the data show it: active = T/C of 150% or more; inactive = T/C below 125%.

Tested on: L1210 leukemia ip in BDF1 mice, survival T/C
Assay: NCI In Vivo Anticancer Drug Screen. Data for tumor model L1210 Leukemia (intraperitoneal) in B6D2F1 (BDF1) mice
Conditions: endpoint: mean survival time, higher = longer survival
Summary of the method: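 Transplantable tumor model; survival measured in treated vs vehicle control mice. Value = treated/control.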

[1] = dose: 100.0 mg/kg/injection, schedule: Q01DX009 (ip), vehicle: Klucel (hydroxypropylcellulose) (HPC)
[2] = dose: 100.0 mg/kg/injection, schedule: Q04DX003 (ip), vehicle: Klucel (hydroxypropylcellulose) (HPC)
[3] = dose: 200.0 mg/kg/injection, schedule: Q01DX009 (ip), vehicle: Klucel (hydroxypropylcellulose) (HPC)
[4] = dose: 200.0 mg/kg/injection, schedule: Q04DX003 (ip), vehicle: Klucel (hydroxypropylcellulose) (HPC)
[5] = dose: 400.0 mg/kg/injection, schedule: Q04DX003 (ip), vehicle: Klucel (hydroxypropylcellulose) (HPC)
[6] = dose: 100.0 mg/kg/injection, schedule: Q04DX003 (ip), vehicle: saline
[7] = dose: 200.0 mg/kg/injection, schedule: Q04DX003 (ip), vehicle: saline
[8] = dose: 100.0 mg/kg/injection, schedule: Q01DX009 (ip), vehicle: saline with Tween-80
[9] = dose: 100.0 mg/kg/injection, schedule: Q04DX003 (ip), vehicle: saline with Tween-80
[10] = dose: 200.0 mg/kg/injection, schedule: Q01DX009 (ip), vehicle: saline with Tween-80
[11] = dose: 200.0 mg/kg/injection, schedule: Q04DX003 (ip), vehicle: saline with Tween-80
[12] = dose: 400.0 mg/kg/injection, schedule: Q01DX009 (ip), vehicle: saline with Tween-80
[13] = dose: 100.0 mg/kg/injection, schedule: Q01DX001 (ip), vehicle: saline
[14] = dose: 200.0 mg/kg/injection, schedule: Q01DX001 (ip), vehicle: saline
[15] = dose: 400.0 mg/kg/injection, schedule: Q01DX001 (ip), vehicle: saline
[16] = dose: 400.0 mg/kg/injection, schedule: Q04DX003 (ip), vehicle: saline with Tween-80

Measured: T/C

C/C(C(=O)O)=C(/Br)c1ccc([N+](=O)[O-])cc1
inactive: [1] 94 % of control | [2] 94 % of control | [3] 95 % of control | [4] 100 % of control | dose: 400.0 mg/kg/injection, schedule: Q01DX009 (ip), vehicle: Klucel (hydroxypropylcellulose) (HPC) 92 % of control | [5] 100 % of control

COc1ccc2c(c1OC)C1(CCN(C)C)CC(O)CCC1C=C2 (stereo not given)
inactive: [6] 102 % of control | [7] 102 % of control

CCCN(CCC)CCCCCO
inactive: dose: 50.0 mg/kg/injection, schedule: Q01DX009 (ip), vehicle: saline with Tween-80 102 % of control | [8] 106 % of control | [9] 94 % of control | [10] 102 % of control | [11] 102 % of control

Cn1c(O)c(O)c(=O)n(C)c1=O
inactive: dose: 50.0 mg/kg/injection, schedule: Q01DX009 (ip), vehicle: Klucel (hydroxypropylcellulose) (HPC) 101 % of control | [1] 98 % of control | [3] 88 % of control

Cc1ccc(C2(C(=O)O)CC2)cc1
inactive: [8] 100 % of control | [10] 97 % of control | [12] 94 % of control

C[N+]12CN3CN(C1)S(=O)(=O)N(C3)C2
inactive: dose: 100.0 mg/kg/injection, schedule: Q01DX009 (ip), vehicle: saline 107 % of control | [6] 95 % of control | dose: 200.0 mg/kg/injection, schedule: Q01DX009 (ip), vehicle: saline 108 % of control | [7] 97 % of control | dose: 400.0 mg/kg/injection, schedule: Q01DX009 (ip), vehicle: saline 110 % of control | dose: 400.0 mg/kg/injection, schedule: Q04DX003 (ip), vehicle: saline 103 % of control

ClCC/C=C\C=C\CCCl
inactive: dose: 75.0 mg/kg/injection, schedule: Q01DX001 (ip), vehicle: saline 93 % of control | dose: 75.0 mg/kg/injection, schedule: Q04DX003 (ip), vehicle: saline 107 % of control | dose: 150.0 mg/kg/injection, schedule: Q01DX001 (ip), vehicle: saline 105 % of control | dose: 150.0 mg/kg/injection, schedule: Q04DX003 (ip), vehicle: saline 111 % of control | dose: 300.0 mg/kg/injection, schedule: Q01DX001 (ip), vehicle: saline 93 % of control | dose: 300.0 mg/kg/injection, schedule: Q04DX003 (ip), vehicle: saline 107 % of control

CCCOP(=S)(N1CC1(C)C)N1CC1(C)C (stereo not given)
active: dose: 100.0 mg/kg/injection, schedule: Q01DX015 (ip), vehicle: carboxymethylcellulose (CMC) 151 % of control
inactive: dose: 3.0 mg/kg/injection, schedule: Q01DX015 (ip), vehicle: carboxymethylcellulose (CMC) 112 % of control | dose: 6.0 mg/kg/injection, schedule: Q01DX015 (ip), vehicle: carboxymethylcellulose (CMC) 105 % of control | dose: 12.0 mg/kg/injection, schedule: Q01DX015 (ip), vehicle: carboxymethylcellulose (CMC) 106 % of control | dose: 25.0 mg/kg/injection, schedule: Q01DX015 (ip), vehicle: carboxymethylcellulose (CMC) 110 % of control | dose: 44.0 mg/kg/injection, schedule: Q01DX Z (ip), vehicle: carboxymethylcellulose (CMC) 103 % of control | dose: 50.0 mg/kg/injection, schedule: Q01DX015 (ip), vehicle: carboxymethylcellulose (CMC) 115 % of control | dose: 67.0 mg/kg/injection, schedule: Q01DX Z (ip), vehicle: carboxymethylcellulose (CMC) 113 % of control | dose: 100.0 mg/kg/injection, schedule: Q01DX Z (ip), vehicle: carboxymethylcellulose (CMC) 111 % of control | dose: 150.0 mg/kg/injection, schedule: Q01DX Z (ip), vehicle: carboxymethylcellulose (CMC) 122 % of control

O=C1CN(CN2CCCCC2)C(=O)CN1CN1CCCCC1
inactive: [1] 91 % of control | [2] 109 % of control | [3] 95 % of control | [4] 106 % of control | [5] 90 % of control

COC(=O)C1C(=O)C(C(=O)OC)C(C)N(C)C1C (stereo not given)
inactive: dose: 9.38 mg/kg/injection, schedule: Q01DX001 (ip), vehicle: other 98 % of control | dose: 18.75 mg/kg/injection, schedule: Q01DX001 (ip), vehicle: other 104 % of control | dose: 37.5 mg/kg/injection, schedule: Q01DX001 (ip), vehicle: other 95 % of control

Cc1nc(N)sc1S(=O)(=O)F
inactive: [13] 96 % of control | [9] 89 % of control | [14] 97 % of control | [11] 97 % of control | [15] 102 % of control | [16] 97 % of control

CCCCCCCCCCCCCCCCCCCCCCCC(=O)NCCc1c[nH]c2ccc(O)cc12 (tested in a mixture with another compound)
inactive: [9] 96 % of control | [11] 96 % of control | [16] 86 % of control

C=C(C(N)=O)c1cc(Cl)ccc1Cl
inactive: [8] 96 % of control | [9] 103 % of control | [10] 92 % of control | [11] 101 % of control | [12] 92 % of control | [16] 94 % of control

c1ccn(-c2nccs2)c1
inactive: [9] 103 % of control | [11] 113 % of control

Cc1[nH]c2ccccc2c1C(=O)Cc1ccc(Cl)cc1Cl
inactive: dose: 50.0 mg/kg/injection, schedule: Q01DX001 (ip), vehicle: saline 98 % of control | [13] 101 % of control | [14] 101 % of control | [15] 95 % of control

CCCCCn1cnc2c(=O)[nH]c(N)nc21
inactive: dose: 50.0 mg/kg/injection, schedule: Q01DX001 (ip), vehicle: Klucel (hydroxypropylcellulose) (HPC) 105 % of control | dose: 100.0 mg/kg/injection, schedule: Q01DX001 (ip), vehicle: Klucel (hydroxypropylcellulose) (HPC) 103 % of control | dose: 200.0 mg/kg/injection, schedule: Q01DX001 (ip), vehicle: Klucel (hydroxypropylcellulose) (HPC) 106 % of control

C/C(=N/OC(=O)N(C)C)c1cc(Cl)ccc1Cl
inactive: [13] 100 % of control | [14] 100 % of control
